Experimental data: US12612431B2, “Cyclic compounds for treating cancer” (University of South Florida, priority 2021, dated 2026)

Assays:
[1] = target: T1, EGFR phosphorylation (P-EGFR) (Homo sapiens, UniProt P00533); assay: Western blot of EGF-stimulated EGFR phosphorylation in A549 cells; format: cell-based
T1 construct: endogenous in cells; host or cells: A549
Experimental: (§1) A549 cells were chosen due to their elevated expression of EGFR. […] The ability of M-2-5 to inhibit EGF-stimulated tyrosine phosphorylation of EGFR, as well as downstream AKT and ERK pathways in a dose-dependent manner was then investigated.
(§2) A549 cells were seeded into a 6-well plate at a concentration of 1×10^5 cells/well. After 12 h attachment at 37° C. and 5% CO2, the cells were starved overnight in serum-reduced DMEM followed by treatment with different concentration of M-2-5 for 4 h. […] Subsequently, the cells were incubated on ice for 10 min and centrifuged at 14,000×g at 4° C. for 10 min. An equal amount of protein was run on 4˜12% Bis-Tris gels, transferred to polyvinylidene difluoride membranes (Millipore) and western blotted with anti-phosphorylated EGFR, anti-phosphorylated AKT, anti-phosphorylated ERK and GAPDH. The experiments were conducted in triplicates and repeated for three times.

[2] = tested on: AKT phosphorylation (P-AKT); assay: Western blot of downstream AKT phosphorylation in A549 cells; format: cell-based; conditions: starved A549 cells, 4 h pretreatment, EGF 100 ng/mL
Experimental: as §1, §2

[3] = tested on: ERK phosphorylation (P-ERK); assay: Western blot of downstream ERK phosphorylation in A549 cells; format: cell-based; conditions: starved A549 cells, 4 h pretreatment, EGF 100 ng/mL
Experimental: as §1, §2

A549 cells [4] = assay: EGF-driven cell proliferation assay (CCK-8); format: cell-based; conditions: A549, EGF 100 ng/mL, 48 h
Experimental: A549 cells were cultured in high-glucose DMEM (Gibco) medium containing 10% fetal bovine serum and 1% penicillin/streptomycin in an atmosphere of 5% CO2 at 37° C. A549 cells in good condition were seeded into a 96-well plate at a concentration of 1×10^3 cells/well in 100 of complete growth medium. After 24 hours of attachment at 37° C. and 5% CO2, medium was replaced by fresh serum reduced DMEM and cell were serum-starved overnight. […] After 48 h, the CCK-8 reagents were added according to the manufacturer's recommendations.

A549 cells [5] = assay: Scratch-wound (cell wound healing) assay; format: cell-based; conditions: A549, 25 μM, 30 h
Experimental: (§3) M-2-5's inhibitory effect on cell migration of A549 cells, which plays an important role in tumor metastatic activity, was then investigated. First, a scratch-wound assay was established to investigate the cell migratory behaviors.
A549 cells in good condition were seeded into a 12-well plate at a concentration of 5×10^4 cells/well. After 24 h attachment at 37° C. and 5% CO2, they reached confluence as a monolayer. The monolayer was scratched gently and slowly with a new 200 μL pipette tip across the center of the well straightly. After scratching, the well was washed twice with medium to remove the detached cells. The well was then replenished with fresh medium containing different concentration of M-2-5. The photo was taken for the scratched monolayer and then captured again after 30 h for the same wound. The wound width was measured by ImageJ. The experiments were conducted in triplicates and repeated for three times.

A549 cells [6] = assay: Transwell migration assay; format: cell-based; conditions: A549, EGF + M-2-5 25 μM, 12 h
Experimental: as §3
A549 cells in good condition were seeded into a 100 mm dish at a concentration of 5×10^5 cells. After overnight attachment at 37° C. and 5% CO2, culture medium was replaced with serum reduced DMEM medium, and the dish was returned to incubator for 24 h. Cells were the detached and resuspended in DMEM at a concentration of 1×10^6 cells/mL. Next, 100 μL of cell solution was plated on top of the filter membrane in a transwell insert and incubated for 10 minutes at 37° C. and 5% CO2 to allow the cells to settle down. Subsequently, 600 μL of the desired chemo-attractant was added very carefully into the bottom of the lower chamber in a 24-well plate. The culture was incubated for 12 h, and then the transwell insert was removed from the plate. A cotton-tipped applicator was used as many times as needed to carefully swab the inside of each insert. Cells were fixed by 70% ethanol, stained by 0.2% crystal violet and visualized by microscope. Transwell data was determined by the number of the migrated cells and the value from parental cells was arbitrarily set at 100%. The experiments were conducted in triplicates and repeated for three times.

pronase = assay: Enzymatic stability assay toward pronase; format: in vitro ADME; conditions: 0.1 mg/mL pronase, 100 mM ammonium bicarbonate buffer, 37° C., 20 h
Experimental: As M-2-5 is a promising ligand to block EGFR signaling in vitro, its enzymatic stability toward pronase (the enzyme theoretically digesting peptides into single amino acids), which is critical for their potential biological activity in vivo was evaluated.
Cyclic γ-AApeptides M-2-5 (0.1 mg/mL) were incubated with 0.1 mg/mL protease in 100 mM ammonium bicarbonate buffer (pH 7.8) at 37° C. for 20 h. Then, the reaction mixtures were concentrated in a speed vacuum to remove water and ammonium bicarbonate. The resulting residues were re-dissolved in H2O/MeCN and analyzed on a Waters analytical HPLC system.

[7] = tested on: A549 lung tumor xenograft; assay: Antitumor study in A549 lung tumor xenograft mouse model; format: in vivo, mice; conditions: every two days for seven times
[8] = Body weight of A549 tumor xenografted mice; format: in vivo; conditions: 10 and 50 mg/kg intraperitoneal, FIG. 10
Experimental: (§4) Based upon the observed strong inhibition of cell proliferation and migration, the ability to inhibit EGFR cell signaling pathways in vitro, as well as the remarkable stability against proteolytic degradation, the antitumor activity of M-2-5 in a A549 lung tumor xenograft mouse model was evaluated in vivo. […] After another 6 days post injection, mice were sacrificed, and tumors were resected. […] To confirm the expression level of P-EGFR and downstream signaling, the total proteins were extracted from tumor tissues in each group and subjected to immunoblotting of P-EGFR, P-ARK and P-ERK. […] In addition, the phosphorylation level of EGFR in the A549 tumor sections was analyzed by immunohistochemical staining. […] Together with its similar function to monoclonal antibody and its high resistance toward proteolytic degradation, it could be further investigated for promising clinical anti-cancer drug development.
A549 cells were harvested, resuspended in PBS, and injected subcutaneously into 4-6 weeks old Male BALB/c nude mice. When the tumors reach an average size of 100 mm^3, the mice were then randomized divided into four treatment groups: Control (PBS), C-225 (40 mg/kg), M-2-5 (10 mg/kg) and M-2-5 (50 mg/kg). […] The tumor volumes were determined by measuring length (l) and width (w) and calculating volume (V=lw^2/2).

P-EGFR = target: T2, P-EGFR (Homo sapiens, UniProt P00533); assay: Western blot of P-EGFR in A549 tumor lysates; format: in vivo, mice; conditions: M-2-5 50 mg/kg
T2 construct: from tissue; host or cells: A549 xenograft tumours from nude mice
T2 sequence (P00533 25-1210): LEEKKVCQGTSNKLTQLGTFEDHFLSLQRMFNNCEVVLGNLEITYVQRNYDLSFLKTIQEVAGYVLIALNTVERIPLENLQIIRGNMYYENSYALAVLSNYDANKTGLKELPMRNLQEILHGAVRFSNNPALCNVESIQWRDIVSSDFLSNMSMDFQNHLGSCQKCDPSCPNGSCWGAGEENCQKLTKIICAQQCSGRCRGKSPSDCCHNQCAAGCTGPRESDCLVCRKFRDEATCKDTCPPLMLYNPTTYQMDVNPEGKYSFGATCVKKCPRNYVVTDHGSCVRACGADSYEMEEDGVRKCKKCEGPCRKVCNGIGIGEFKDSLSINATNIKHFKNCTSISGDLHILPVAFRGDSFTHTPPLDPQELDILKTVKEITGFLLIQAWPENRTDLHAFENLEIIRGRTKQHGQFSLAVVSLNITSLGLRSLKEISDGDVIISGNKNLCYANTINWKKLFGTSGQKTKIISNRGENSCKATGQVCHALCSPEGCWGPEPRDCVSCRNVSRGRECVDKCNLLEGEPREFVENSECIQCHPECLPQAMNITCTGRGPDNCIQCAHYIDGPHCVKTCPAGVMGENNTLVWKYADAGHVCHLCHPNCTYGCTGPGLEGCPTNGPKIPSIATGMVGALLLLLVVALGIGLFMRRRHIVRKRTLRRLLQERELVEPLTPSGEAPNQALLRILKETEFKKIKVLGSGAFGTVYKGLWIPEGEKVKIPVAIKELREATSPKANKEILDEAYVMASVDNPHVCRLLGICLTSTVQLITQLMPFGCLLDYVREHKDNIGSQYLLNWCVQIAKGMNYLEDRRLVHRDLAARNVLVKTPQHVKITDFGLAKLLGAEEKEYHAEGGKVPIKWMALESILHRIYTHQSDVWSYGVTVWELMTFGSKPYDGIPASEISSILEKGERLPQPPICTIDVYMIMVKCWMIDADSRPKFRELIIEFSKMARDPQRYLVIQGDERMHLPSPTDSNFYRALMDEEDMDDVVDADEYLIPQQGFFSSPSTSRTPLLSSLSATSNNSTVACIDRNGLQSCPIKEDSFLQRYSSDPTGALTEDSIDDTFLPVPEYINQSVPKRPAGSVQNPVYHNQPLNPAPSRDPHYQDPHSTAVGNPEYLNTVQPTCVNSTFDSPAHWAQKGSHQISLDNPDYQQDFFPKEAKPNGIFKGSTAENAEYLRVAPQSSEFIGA
Experimental: (§5) After another 6 days post injection, mice were sacrificed, and tumors were resected. […] To confirm the expression level of P-EGFR and downstream signaling, the total proteins were extracted from tumor tissues in each group and subjected to immunoblotting of P-EGFR, P-ARK and P-ERK. […] In addition, the phosphorylation level of EGFR in the A549 tumor sections was analyzed by immunohistochemical staining.
(§6) The supernatant was transferred to a new tube and samples were centrifuged at 14,000 rpm for 15 min at 4° C. to remove any remaining insoluble material. The supernatant containing soluble proteins was transferred to a new tube and an aliquot was taken for the quantification and the further western blot analysis.

P-AKT = assay: Western blot of P-AKT in A549 tumor lysates; format: in vivo, mice; conditions: M-2-5 50 mg/kg
Experimental: as §5, §6

P-ERK = assay: Western blot of P-ERK in A549 tumor lysates; format: in vivo, mice; conditions: M-2-5 50 mg/kg, compared to C225
Experimental: as §4
For the detection of phosphorylated EGFR, AKT and ERK in tumors in vivo, a portion of the tumor (80 mg) was immersed in 500 μL extraction buffer (50 mM Tris-HCl (pH 7.4), 150 mM NaCl, 1% NP-40, 0.25% Na-deoxycholate, Protease Inhibitor, SDS 0.1-2%), and tubes were vortexed briefly. […] The supernatant containing soluble proteins was transferred to a new tube and an aliquot was taken for the quantification and the further western blot analysis.

[9] = tested on: Human Embryonic Kidney HEK293 cells
PAMPA-BBB assay = conditions: pH 7.4
Experimental: (§7) Carbamazepine and Antipyrine were used as the positive and negative control compounds for the assay.
The parallel artificial membrane permeability assay—blood brain barrier (PAMPA-BBB) assay procedure was realized by using a method developed by pION. All liquid handling steps for the PAMPA assay are performed on a TECAN Fredom EVO150 robot and analyzed by the pION's PAMPA Evolution Software. The pION's PAMPA-BBB includes the brain sink buffer (BSB), the BBB-1 Lipid Solution and the Stirwell™ PAMPA Sandwich plate, preloaded with magnetic disks. 4 μL of lipid were transferred in the acceptor well, followed by addition of 200 μL of BSB (pH 7.4). […] The PAMPA sandwich plate was assembled and placed on the Gut-Box™ and stirred with 60 μm Aqueous Boundary Layer (ABL) settings for 1 hour. The distribution of the compounds in the donor and acceptor buffers (150 μL aliquot) was determined by UV spectra measurement from 200 to 500 nm using the Tecan infinite M-1000 pro microplate reader. […] Experiments were repeated three times.

PAMPA-GIT assay = conditions: pH 5.0, 6.2 and 7.4 (FIG. 8B)
Experimental: as §7
The PAMPA-GIT assay procedure was realized by using a method developed by pION. All liquid handling steps for the PAMPA assay are performed on a TECAN Fredom EVO150 robot and analyzed by the pION's PAMPA Evolution Software. The pION's GIT PAMPA includes the acceptor sink buffer (ASB), the GIT-0 Lipid Solution and the Stirwell™ PAMPA Sandwich plate, preloaded with magnetic disks. 4 μL of lipid were transferred in the acceptor well, followed by addition of 200 μL of ASB (pH 7.4). […] The PAMPA sandwich plate was assembled and placed on the Gut-Box™ and stirred with 40 μm ABL settings for 30 min. The distribution of the compounds in the donor and acceptor buffers (150 μL aliquot) was determined by UV spectra measurement from 200 to 498 nm using the Tecan infinite M-1000 pro microplate reader. Then the Permeability (Papp, 10 ^6 cm/s) of each compound was calculated by the pion PAMPA evolution software. The assays were repeated three times.

[10] = cited from earlier work
[11] = general statement on the positive control; cited from earlier work

T1 sequence (P00533 25-1210): as above

COc1cc(CC(=O)N2CC(=O)N[C@@H](Cc3ccccc3)CN(CC(N)=O)C(=O)CCSCc3ccc(cc3)C(=O)N[C@@H](CCCCN)CN(C(=O)CCC3CCCCC3)CC(=O)N[C@@H](Cc3ccccc3)CN(C(=O)CCc3ccccc3)CC(=O)N[C@@H](Cc3ccccc3)C2)cc(OC)c1 [M-2-5]
IC50 [1]: 17.7 µM
effect on EGF-induced EGFR activation ([1]; starved A549 cells, 20 μM M-2-5 for 4 h, EGF 100 ng/mL (FIG. 5C, 5D)): blocked a vast majority of EGFR activation
inhibition of EGF stimulation of EGFR phosphorylation at 25 μM or more ([1]; starved A549 cells, 4 h pretreatment, 25 μM or more): almost complete blockage
IC50 [2]: 8.75 µM
IC50 [3]: 11.2 µM
IC50 (A549 cells [4]; CCK-8, read-out: IC50 of antiproliferative activity on EGF-stimulated cells): 8.23 µM
suppression of EGF-driven cell proliferation at ˜10 (A549 cells [4]; at ˜10 (unit not given), versus control without EGF): complete suppression of cell proliferation
percent of wound closed (A549 cells [5]): 15.2%
decrease of wound closed compared with untreated control (A549 cells [5]; control 55.3%): 40%
number of migrating cells relative to untreated control (100%) (A549 cells [6]): 64.8%
degradation by pronase monitored by HPLC (pronase): no detectable degradation
tumor volume versus PBS group ([7]; 10 mg/kg intraperitoneal): no significant differences
tumor growth versus PBS group ([7]; 50 mg/kg intraperitoneal): significant suppression of tumor growth
body weight gain [8]: did not affect the body weight gain
P-EGFR level in tumor tissue (P-EGFR): dramatic decrease
P-AKT level in tumor tissue (P-AKT): dramatic decrease
inhibition of P-ERK in tumor tissue (P-ERK): slightly weaker efficiency
selectivity toward cancer cells over normal cells ([9]; A549 versus HEK293): ~8 fold
IC50 ([9]; read-out: IC50 for HEK293 cells, no EGF stimulation, CCK-8): 62.1 µM
Papp at 1 h, 50 μM (PAMPA-BBB assay): 266
Papp, PAMPA-GIT (in words) (PAMPA-GIT assay): favorable Papp without pH-dependence

Cc1cc(=O)n(-c2ccccc2)n1C [Antipyrine]
Papp values (background) [10]: low Papp values

NC(=O)N1c2ccccc2C=Cc2ccccc21 [Carbamazepine]
absorption in the human gastrointestinal tract [11]: > 90%
